Source: patent publication US11180470B2, “Herbicidal pyrimidine compounds” (BASF SE, priority 2016, dated 2021)

Assays:
AMARE = experiment: greenhouse experiment, post-emergence treatment; assay type: in vivo, Amaranthus retroflexus; details: post-emergence method, application rate 2000 g/ha, scale from 0 to 100
Excerpt: (§1) The culture containers used were plastic flowerpots containing loamy sand with approximately 3.0% of humus as the substrate. The seeds of the test plants were sown separately for each species.
(§2) For the post-emergence treatment, the test plants were first grown to a height of 3 to 15 cm, depending on the plant habit, and only then treated with the active ingredients which had been suspended or emulsified in water. For this purpose, the test plants were either sown directly and grown in the same containers, or they were first grown separately as seedlings and transplanted into the test containers a few days prior to treatment.
(§3) Depending on the species, the plants were kept at 10-25° C. or 20-35° C., respectively.
(§4) The test period extended over 2 to 4 weeks. During this time, the plants were tended, and their response to the individual treatments was evaluated.
(§5) Evaluation was carried out using a scale from 0 to 100. 100 means no emergence of the plants, or complete destruction of at least the aerial moieties, and 0 means no damage, or normal course of growth. A good herbicidal activity is given at values of at least 70 and a very good herbicidal activity is given at values of at least 85.
(§6) The plants used in the greenhouse experiments were of the following species: […]

AVEFA = experiment: greenhouse experiment, post-emergence treatment; assay type: in vivo, Avena fatua; details: post-emergence method, application rate 2000 g/ha, scale from 0 to 100
Excerpt: as §1, §2, §3, §4, §5, §6

SETVI = experiment: greenhouse experiment, post-emergence treatment; assay type: in vivo, Setaria viridis; details: post-emergence method, application rate 2000 g/ha, scale from 0 to 100
Excerpt: as §1, §2, §3, §4, §5, §6

APESV = experiment: greenhouse experiment, pre-emergence treatment; assay type: in vivo, Apera spica-venti; details: pre-emergence method, application rate 2000 g/ha, scale from 0 to 100
Excerpt: (§7) The seeds of the test plants were sown separately for each species. For the pre-emergence treatment, the active ingredients, which had been suspended or emulsified in water, were applied directly after sowing by means of finely distributing nozzles. The containers were irrigated gently to promote germination and growth and subsequently covered with transparent plastic hoods until the plants had rooted. This cover caused uniform germination of the test plants, unless this had been impaired by the active ingredients. Depending on the species, the plants were kept at 10-25° C. or 20-35° C., respectively. The test period extended over 2 to 4 weeks. During this time, the plants were tended, and their response to the individual treatments was evaluated. Evaluation was carried out using a scale from 0 to 100. 100 means no emergence of the plants, or complete destruction of at least the aerial moieties, and 0 means no damage, or normal course of growth. A good herbicidal activity is given at values of at least 70 and a very good herbicidal activity is given at values of at least 85. The plants used in the greenhouse experiments were of the following species: [table]

ABUTH = experiment: greenhouse experiment, post-emergence treatment; assay type: in vivo, Abutilon theophrasti; details: post-emergence method, application rate 2000 g/ha, scale from 0 to 100
Excerpt: as §1, §2, §3, §4, §5, §6

ALOMY = experiment: greenhouse experiment, post-emergence treatment; assay type: in vivo, Alopecurus myosuroides; details: post-emergence method, application rate 2000 g/ha, scale from 0 to 100
Excerpt: as §1, §2, §3, §4, §5, §6

ECHCG [1] = experiment: greenhouse experiment, pre-emergence treatment; assay type: in vivo, Echinocloa crus-galli; details: pre-emergence method, application rate 2000 g/ha, scale from 0 to 100
Excerpt: as §7

ECHCG [2] = experiment: greenhouse experiment, post-emergence treatment; assay type: in vivo, Echinocloa crus-galli; details: post-emergence method, application rate 2000 g/ha, scale from 0 to 100
Protocol: The seeds of the test plants were sown separately for each species. […] For this purpose, the test plants were either sown directly and grown in the same containers, or they were first grown separately as seedlings and transplanted into the test containers a few days prior to treatment. Depending on the species, the plants were kept at 10-25° C. or 20-35° C., respectively. The test period extended over 2 to 4 weeks. During this time, the plants were tended, and their response to the individual treatments was evaluated. Evaluation was carried out using a scale from 0 to 100. 100 means no emergence of the plants, or complete destruction of at least the aerial moieties, and 0 means no damage, or normal course of growth. A good herbicidal activity is given at values of at least 70 and a very good herbicidal activity is given at values of at least 85. The plants used in the greenhouse experiments were of the following species: [table]

Row | SMILES | herbicidal activity against AMARE (AMARE) | herbicidal activity against AVEFA (AVEFA) | herbicidal activity against SETVI (SETVI) | herbicidal activity against APESV (APESV) | herbicidal activity against ABUTH (ABUTH) | herbicidal activity against ALOMY (ALOMY) | herbicidal activity against ECHCG (ECHCG [1]) | herbicidal activity against ECHCG (ECHCG [2])
1 | COC(=O)c1nc(C2CC2)ncc1-c1ccncc1F [Example 33] | very good (a very good herbicidal activity is given at values of at least 85) | very good (a very good herbicidal activity is given at values of at least 85) | very good (a very good herbicidal activity is given at values of at least 85) | good (A good herbicidal activity is given at values of at least 70) |  |  |  | 
2 | COC(=O)c1nc(C2CC2)ncc1-c1cc(C(F)(F)F)ncc1Cl [Example 63] |  |  | very good (a very good herbicidal activity is given at values of at least 85) | very good (a very good herbicidal activity is given at values of at least 85) | very good (a very good herbicidal activity is given at values of at least 85) | very good (a very good herbicidal activity is given at values of at least 85) | very good (a very good herbicidal activity is given at values of at least 85) | 
3 | COC(=O)c1nc(C2CC2)ncc1-c1ncc(F)cc1F [Example 31] |  |  | very good (a very good herbicidal activity is given at values of at least 85) | very good (a very good herbicidal activity is given at values of at least 85) | good (A good herbicidal activity is given at values of at least 70) |  |  | 
4 | COC(=O)c1nc(C2CC2)ncc1-c1ncc(F)cc1Cl [Example 41] |  | very good (a very good herbicidal activity is given at values of at least 85) | very good (a very good herbicidal activity is given at values of at least 85) | very good (a very good herbicidal activity is given at values of at least 85) |  | very good (a very good herbicidal activity is given at values of at least 85) | very good (a very good herbicidal activity is given at values of at least 85) | 
5 | COC(=O)c1nc(C2CC2)ncc1-c1ncccc1F [Example 19] | very good (a very good herbicidal activity is given at values of at least 85) |  | very good (a very good herbicidal activity is given at values of at least 85) |  |  |  |  | very good (a very good herbicidal activity is given at values of at least 85)
